# Test results published in patent US20250100994A1, “CDK12/13 COVALENT INHIBITORS OR PHARMACEUTICAL COMPOSITION THEREOF, AND USES THEREOF” (The Regents of the University of Michigan, priority 2023, published 2025).
# Like-named read-outs stand apart in the source and are kept apart here.
# Experiments:
# [1] = tested on: VCaP cell; assay: VCaP cell proliferation, CellTiter-Glo Luminescent Cell Viability Assay; type: cell-based; details: VCaP cells
# Description: The VCaP cell proliferation activity was determined by CellTiter-Glo Luminescent Cell Viability Assay (Promega, Madison, WI). The cells were inoculated on a 96-well plate in their respective culture mediums, and incubated in an incubator with 5% CO2 at 37° C. After incubation overnight, serial dilutions of the compound were prepared, and added into the 96-well plate. A CellTiter-Glo reagent (volume equal to the volume of the cell culture medium present in each well) was added (e.g., 100 μL of the reagent was added into 100 μL of the cell culture medium in the 96-well plate). The contents were mixed on an orbital shaker for 2 min to induce the cell lysis. The cells in the 96-well plate were incubated at room temperature for 10 min, to stabilize the luminescent signal. Luminescence was recorded: the luminescent signal for each well was acquired using an Infinite M1000 Pro plate reader (Tecan, Zurich, Switzerland), and the data was analyzed using GraphPad Prism software (GraphPad Software Inc, La Jolla, CA).
# [2] = biological target: CDK13 (Homo sapiens (Human), UniProt Q14004); assay: LANCE Ultra kinase assay, CDK13; type: biochemical
# Sequence of CDK13 (Q14004 whole entry, looked up): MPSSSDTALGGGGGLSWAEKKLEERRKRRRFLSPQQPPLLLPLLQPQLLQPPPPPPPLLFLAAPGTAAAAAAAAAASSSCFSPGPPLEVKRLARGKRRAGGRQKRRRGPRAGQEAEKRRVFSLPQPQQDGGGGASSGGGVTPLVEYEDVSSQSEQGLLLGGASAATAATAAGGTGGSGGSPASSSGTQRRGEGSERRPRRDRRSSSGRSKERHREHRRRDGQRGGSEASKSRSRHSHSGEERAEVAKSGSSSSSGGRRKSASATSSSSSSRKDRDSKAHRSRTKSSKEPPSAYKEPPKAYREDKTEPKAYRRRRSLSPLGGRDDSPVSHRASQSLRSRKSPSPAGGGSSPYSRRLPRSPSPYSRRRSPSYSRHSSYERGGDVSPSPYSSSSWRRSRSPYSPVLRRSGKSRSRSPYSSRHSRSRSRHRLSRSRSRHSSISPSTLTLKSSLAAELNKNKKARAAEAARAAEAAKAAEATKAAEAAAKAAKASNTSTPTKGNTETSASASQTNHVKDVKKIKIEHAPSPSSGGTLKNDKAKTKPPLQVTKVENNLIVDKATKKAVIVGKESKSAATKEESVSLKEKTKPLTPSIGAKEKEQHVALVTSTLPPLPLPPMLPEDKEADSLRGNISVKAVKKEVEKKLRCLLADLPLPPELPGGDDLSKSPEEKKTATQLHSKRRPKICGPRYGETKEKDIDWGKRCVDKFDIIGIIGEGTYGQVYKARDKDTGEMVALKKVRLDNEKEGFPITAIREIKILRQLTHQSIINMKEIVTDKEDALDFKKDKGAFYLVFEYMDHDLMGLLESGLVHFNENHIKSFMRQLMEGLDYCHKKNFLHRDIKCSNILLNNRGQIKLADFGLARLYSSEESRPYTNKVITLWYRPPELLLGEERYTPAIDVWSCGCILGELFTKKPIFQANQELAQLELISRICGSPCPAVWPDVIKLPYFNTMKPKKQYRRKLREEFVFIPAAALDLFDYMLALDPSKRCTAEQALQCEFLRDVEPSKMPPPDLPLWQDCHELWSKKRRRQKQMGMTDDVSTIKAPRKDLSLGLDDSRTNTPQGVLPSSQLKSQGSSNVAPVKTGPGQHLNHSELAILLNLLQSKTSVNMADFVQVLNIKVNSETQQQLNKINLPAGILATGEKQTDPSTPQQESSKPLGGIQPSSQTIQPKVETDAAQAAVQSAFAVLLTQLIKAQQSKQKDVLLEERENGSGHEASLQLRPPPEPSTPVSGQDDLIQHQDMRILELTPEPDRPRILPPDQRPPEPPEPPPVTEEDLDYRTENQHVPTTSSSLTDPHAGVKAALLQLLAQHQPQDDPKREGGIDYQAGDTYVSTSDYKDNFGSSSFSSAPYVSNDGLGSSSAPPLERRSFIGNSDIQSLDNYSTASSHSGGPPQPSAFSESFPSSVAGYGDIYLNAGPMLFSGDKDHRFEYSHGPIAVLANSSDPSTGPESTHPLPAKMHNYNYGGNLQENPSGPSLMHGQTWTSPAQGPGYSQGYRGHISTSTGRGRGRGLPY
# Sequence of CDK13 (O75909 whole entry partner, looked up): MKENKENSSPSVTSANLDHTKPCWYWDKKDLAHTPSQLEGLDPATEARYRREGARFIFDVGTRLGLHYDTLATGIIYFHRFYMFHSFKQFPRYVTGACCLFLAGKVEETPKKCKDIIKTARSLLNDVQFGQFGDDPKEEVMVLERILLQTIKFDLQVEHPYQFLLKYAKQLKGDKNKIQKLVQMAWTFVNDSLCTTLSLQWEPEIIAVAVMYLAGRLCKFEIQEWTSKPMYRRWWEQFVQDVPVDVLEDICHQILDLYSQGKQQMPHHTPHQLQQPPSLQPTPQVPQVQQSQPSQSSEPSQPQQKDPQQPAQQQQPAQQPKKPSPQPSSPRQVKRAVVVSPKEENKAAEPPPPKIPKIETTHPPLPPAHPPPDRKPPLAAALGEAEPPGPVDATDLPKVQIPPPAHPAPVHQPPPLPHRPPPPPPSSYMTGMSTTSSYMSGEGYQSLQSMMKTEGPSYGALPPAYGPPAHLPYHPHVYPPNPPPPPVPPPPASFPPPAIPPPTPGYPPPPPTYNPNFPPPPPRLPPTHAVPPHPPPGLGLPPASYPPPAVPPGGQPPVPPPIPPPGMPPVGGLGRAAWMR
# Description: (§1) The inhibitory activities of the test compound on the kinases were evaluated by LANCE Ultra assay, which was used for detecting ATP-dependent phosphorylation of a ULight-4E-BP1 (Thr37/Thr46) substrate peptide (150 nM). In short, enzymatic reactions were performed in a reaction buffer (25 mM HEPES (pH 7.5), 10 mM MgCl2, 0.01% BSA, 0.01% Tween 20, and 1 mM DTT). The assay was performed in a 384-well plate (6 μL). A final concentration of an ATP substrate was […], and a final concentration of the ULight-4E-BP1 (Thr37/Thr46) substrate peptide was 150 nM. A final concentration of CDK9, CDK12, or CDK13 was 0.3, 30, or 30 nM, respectively. Pre-incubation of the compound and the enzyme was performed at room temperature for 60 min. The reaction was stopped by adding 10 mM EDTA and 0.15 nM Eu-labeled anti-phospho-eIF4E-binding protein 1 (Thr37/46) antibody in LANCE detection buffer after incubation at room temperature for 15, 60, or 90 min. Time-resolved fluorescence (excitation, 320 nm; emission donor, 615 nm; emission acceptor, 665 nm) was monitored using an EnVision spectrophotometer (PerkinElmer). Readings were computed as (acceptor count/donor count)×1000. IC50 values were derived by fitting a sigmoidal dose-response curve to a plot of assay readouts of inhibitor concentrations. All fittings were computed using program Prism 5.03 (GraphPad Software, San Diego, CA).
# [3] = biological target: CDK12 (Homo sapiens (Human), UniProt Q9NYV4); assay: LANCE Ultra kinase assay, CDK12; type: biochemical
# Sequence of CDK12 (Q9NYV4 whole entry): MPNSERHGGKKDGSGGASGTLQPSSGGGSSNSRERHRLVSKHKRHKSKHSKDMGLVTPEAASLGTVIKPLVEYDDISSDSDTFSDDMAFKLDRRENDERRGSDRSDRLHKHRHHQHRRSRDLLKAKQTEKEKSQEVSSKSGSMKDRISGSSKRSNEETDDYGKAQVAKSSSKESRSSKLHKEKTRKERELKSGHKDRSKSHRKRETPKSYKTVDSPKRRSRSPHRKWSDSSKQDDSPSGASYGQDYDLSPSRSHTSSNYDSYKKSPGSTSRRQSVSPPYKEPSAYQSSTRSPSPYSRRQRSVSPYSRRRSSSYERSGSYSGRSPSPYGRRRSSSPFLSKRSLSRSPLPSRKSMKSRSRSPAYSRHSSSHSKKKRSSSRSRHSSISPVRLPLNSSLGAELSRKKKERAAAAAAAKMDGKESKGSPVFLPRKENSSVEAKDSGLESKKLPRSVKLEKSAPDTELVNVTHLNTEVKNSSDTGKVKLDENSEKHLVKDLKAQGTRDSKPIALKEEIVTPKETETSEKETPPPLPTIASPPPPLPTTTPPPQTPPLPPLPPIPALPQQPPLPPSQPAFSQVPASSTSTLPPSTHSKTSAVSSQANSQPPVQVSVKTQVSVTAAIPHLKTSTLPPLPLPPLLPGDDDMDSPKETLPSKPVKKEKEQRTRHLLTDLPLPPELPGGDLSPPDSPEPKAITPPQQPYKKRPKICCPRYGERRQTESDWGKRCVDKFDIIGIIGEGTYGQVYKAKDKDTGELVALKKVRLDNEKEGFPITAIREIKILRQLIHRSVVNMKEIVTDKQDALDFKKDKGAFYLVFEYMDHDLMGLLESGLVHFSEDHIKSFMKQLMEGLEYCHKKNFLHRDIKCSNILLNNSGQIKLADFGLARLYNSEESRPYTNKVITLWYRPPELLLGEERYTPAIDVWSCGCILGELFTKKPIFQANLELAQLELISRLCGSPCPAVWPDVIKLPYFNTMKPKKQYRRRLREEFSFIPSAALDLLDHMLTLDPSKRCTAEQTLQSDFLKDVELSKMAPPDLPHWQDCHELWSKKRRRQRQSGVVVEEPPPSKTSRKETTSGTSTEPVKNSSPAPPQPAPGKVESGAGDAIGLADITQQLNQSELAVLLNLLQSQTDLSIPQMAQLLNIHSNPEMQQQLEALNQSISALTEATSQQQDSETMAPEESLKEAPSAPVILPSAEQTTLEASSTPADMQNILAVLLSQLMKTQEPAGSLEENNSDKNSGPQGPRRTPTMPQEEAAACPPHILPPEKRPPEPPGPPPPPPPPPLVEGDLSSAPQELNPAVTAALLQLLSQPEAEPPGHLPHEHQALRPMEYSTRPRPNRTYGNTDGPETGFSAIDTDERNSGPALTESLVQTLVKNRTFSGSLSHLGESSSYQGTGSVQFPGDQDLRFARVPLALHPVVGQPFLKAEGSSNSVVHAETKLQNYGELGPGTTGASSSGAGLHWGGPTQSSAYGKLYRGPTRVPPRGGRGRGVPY
# Sequence of CDK12 (O75909 whole entry partner): as the sequence (O75909 whole entry partner, looked up) above
# Description: as §1
# [4] = biological target: CDK9 (Homo sapiens (Human), UniProt P50750); assay: LANCE Ultra kinase assay, CDK9; type: biochemical
# Sequence of CDK9 (P50750 whole entry, looked up, species assumed): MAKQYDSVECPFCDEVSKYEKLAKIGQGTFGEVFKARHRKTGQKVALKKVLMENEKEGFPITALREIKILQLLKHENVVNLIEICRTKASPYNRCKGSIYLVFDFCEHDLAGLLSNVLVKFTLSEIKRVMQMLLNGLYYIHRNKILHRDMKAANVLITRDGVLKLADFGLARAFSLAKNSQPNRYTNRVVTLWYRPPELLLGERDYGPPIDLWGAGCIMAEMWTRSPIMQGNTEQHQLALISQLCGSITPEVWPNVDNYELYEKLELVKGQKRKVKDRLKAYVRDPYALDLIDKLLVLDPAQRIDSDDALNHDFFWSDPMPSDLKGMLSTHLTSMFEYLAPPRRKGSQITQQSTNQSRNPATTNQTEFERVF
# Sequence of CDK9 (O60563 whole entry partner, looked up, species assumed): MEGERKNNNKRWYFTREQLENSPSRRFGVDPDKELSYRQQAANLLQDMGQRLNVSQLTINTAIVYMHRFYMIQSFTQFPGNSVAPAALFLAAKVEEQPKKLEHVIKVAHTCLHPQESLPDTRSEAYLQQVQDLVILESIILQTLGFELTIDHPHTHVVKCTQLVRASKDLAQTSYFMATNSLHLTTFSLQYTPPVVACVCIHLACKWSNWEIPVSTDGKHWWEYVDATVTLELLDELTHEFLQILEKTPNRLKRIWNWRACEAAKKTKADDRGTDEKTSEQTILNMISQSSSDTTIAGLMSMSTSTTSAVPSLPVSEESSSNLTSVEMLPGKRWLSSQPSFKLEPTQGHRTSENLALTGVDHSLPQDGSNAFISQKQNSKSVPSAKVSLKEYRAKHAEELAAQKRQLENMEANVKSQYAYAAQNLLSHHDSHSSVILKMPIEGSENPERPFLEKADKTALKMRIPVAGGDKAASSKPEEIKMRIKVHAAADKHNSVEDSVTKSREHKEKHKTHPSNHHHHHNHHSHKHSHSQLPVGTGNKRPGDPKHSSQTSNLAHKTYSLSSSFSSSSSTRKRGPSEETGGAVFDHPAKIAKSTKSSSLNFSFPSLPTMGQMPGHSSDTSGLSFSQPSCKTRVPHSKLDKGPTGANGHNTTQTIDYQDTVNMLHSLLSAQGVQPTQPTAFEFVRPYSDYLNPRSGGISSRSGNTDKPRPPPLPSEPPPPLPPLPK
# Description: as §1
# [5] = 30 nM enzyme, 60 min pre-incubation, ULight-4E-BP1 150 nM, read-out: CDK13 IC50
# [6] = 30 nM enzyme, 60 min pre-incubation, ULight-4E-BP1 150 nM, read-out: CDK12 IC50
SMILES,IC50 ([1]; Homo sapiens),"IC50 [2, 5]","IC50 [3, 6]",other results
"C=CC(=O)Nc1cccc(N(C(=O)NCc2ccccc2)[C@H]2CC[C@H](Nc3ccc(C#N)cn3)CC2)c1 [YJZ4156, N-(3-(3-benzyl-1-((1r,4r)-4-((5-cyanopyridin-2-yl)amino)cyclohexyl)ureido)phenyl)acrylamide]",50 to 500 nM,50 to 500 nM,> 500 nM,
C=CC(=O)Nc1cc(N(C(=O)NCc2ccccc2)[C@H]2CC[C@H](Nc3ccc(C#N)cn3)CC2)ccc1-c1ccc(=O)n(C)c1 [YJZ5028],50 to 500 nM,< 15 nM,15 to 50 nM,
"C=CC(=O)Nc1cc(N(C(=O)NCc2ccccc2)[C@H]2CC[C@H](Nc3ccc(C#N)cn3)CC2)ccc1N1CCC(N(C)C)CC1 [YJZ5118, N-(5-(3-benzyl-1-((1r,4r)-4-((5-cyanopyridin-2-yl)amino)cyclohexyl)ureido)-2-(4-(dimethylamino)piperidin-1-yl)phenyl)acrylamide]",< 15 nM,,,"IC50 [2]: 15 to 50 nM; inhibitory activities on CDK12/13 kinase (CDK13) ([2]; in words): strong; IC50 [3]: 15 to 50 nM; inhibitory activities on CDK12/13 kinase (CDK12) ([3]; in words): strong; IC50 ([4]; 0.3 nM enzyme, 60 min pre-incubation, ULight-4E-BP1 150 nM): > 500 nM; selectivity for CDK9 kinase ([4]; CDK12/13 versus CDK9, in words): good selectivity"
"C=CC(=O)Nc1cc(N(C(=O)NCc2ccccc2)[C@H]2CC[C@H](Nc3ccc(C#N)cn3)CC2)ccc1N1CC(N(C)C)C1 [YJZ6077, N-(5-(3-benzyl-1-((1r,4r)-4-((5-cyanopyridin-2-yl)amino)cyclohexyl)ureido)-2-(3-(dimethylamino)azetidin-1-yl)phenyl)acrylamide]",50 to 500 nM,50 to 500 nM,50 to 500 nM,
C=CC(=O)Nc1cc(N(C(=O)NCc2ccccc2)[C@H]2CC[C@H](Nc3ccc(C#N)cn3)CC2)ccc1N1CCC(N(C)C)C1 (stereo partly shown) [YJZ6082],50 to 500 nM,50 to 500 nM,> 500 nM,
"C=CC(=O)Nc1cc(N(C(=O)NCc2ccccc2)[C@H]2CC[C@H](Nc3ccc(C#N)cn3)CC2)ccc1N1C[C@H]2C[C@@H]1CN2C [YJZ6096, N-(5-(3-benzyl-1-((1r,4R)-4-((5-cyanopyridin-2-yl)amino)cyclohexyl)ureido)-2-((1R,4R)-5-methyl-2,5-diazabicyclo[2.2.1]heptan-2-yl)phenyl)acrylamide]",50 to 500 nM,15 to 50 nM,15 to 50 nM,
C=CC(=O)Nc1cc(N(C(=O)NCc2ccccc2)[C@H]2CC[C@H](Nc3ccc(C#N)cn3)CC2)cc(F)c1N1CCN(C)[C@@H](C)C1 [YJZ8070],,15 to 50 nM,50 to 500 nM,IC50 [1]: < 15 nM

# Further lines, with some results ahead:
IC50 ([1]; Homo sapiens),"IC50 [2, 5]","IC50 [3, 6]",SMILES,other results
15 to 50 nM,15 to 50 nM,15 to 50 nM,"C=CC(=O)Nc1cc(N(C(=O)NCc2ccccc2)[C@H]2CC[C@H](Nc3ccc(C#N)cn3)CC2)ccc1N1CCN(C(C)=O)CC1 [YJZ5111, N-(2-(4-acetylpiperazin-1-yl)-5-(3-benzyl-1-((1r,4r)-4-((5-cyanopyridin-2-yl)amino)cyclohexyl)ureido)phenyl)acrylamide]",
< 15 nM,50 to 500 nM,50 to 500 nM,"C=CC(=O)Nc1cc(N(C(=O)NCc2ccccc2)[C@H]2CC[C@H](Nc3ccc(C#N)cn3)CC2)ccc1N(C)CCN(C)C [YJZ5125, N-(5-(3-benzyl-1-((1r,4r)-4-((5-cyanopyridin-2-yl)amino)cyclohexyl)ureido)-2-((2-(dimethylamino)ethyl)(methyl)amino)phenyl)acrylamide]",
15 to 50 nM,< 15 nM,50 to 500 nM,"C=CC(=O)Nc1cc(N(C(=O)NCc2ccccc2)[C@H]2CC[C@H](Nc3ccc(C#N)cn3)CC2)ccc1N1CCOCC1 [YJZ5127, N-(5-(3-benzyl-1-((1r,4r)-4-((5-cyanopyridin-2-yl)amino)cyclohexyl)ureido)-2-morpholinophenyl)acrylamide]",
15 to 50 nM,50 to 500 nM,50 to 500 nM,"C=CC(=O)Nc1cc(N(C(=O)NCc2ccccc2)[C@H]2CC[C@H](Nc3ccc(C#N)cn3)CC2)ccc1N1CCN(C2COC2)CC1 [YJZ6028, N-(5-(3-benzyl-1-((1r,4r)-4-((5-cyanopyridin-2-yl)amino)cyclohexyl)ureido)-2-(4-(oxetan-3-yl)piperazin-1-yl)phenyl)acrylamide]",
< 15 nM,15 to 50 nM,15 to 50 nM,C=CC(=O)Nc1cc(N(C(=O)NCc2ccccc2)[C@H]2CC[C@H](Nc3ccc(C#N)cn3)CC2)ccc1N1CCN(C)[C@@H](C)C1 [YJZ6093],
15 to 50 nM,< 15 nM,15 to 50 nM,C=CC(=O)Nc1cc(N(C(=O)NCc2ccccc2)[C@H]2CC[C@H](Nc3ccc(C#N)cn3)CC2)ccc1N1CCN[C@@H](C)C1 [YJZ8027],
15 to 50 nM,,,"C=CC(=O)Nc1cc(N(C(=O)C(=O)NCC(F)(F)F)[C@H]2CC[C@H](Nc3ccc(C#N)cn3)CC2)ccc1N1CCN(C)[C@@H](C)C1 [YJZ8104, N1-(3-acrylamido-4-((S)-3,4-dimethylpiperazin-1-yl)phenyl)-N1-((1r,4S)-4-((5-cyanopyridin-2-yl)amino)cyclohexyl)-N2-(2,2,2-trifluoroethyl)oxalamide]",
15 to 50 nM,,,"C=CC(=O)Nc1cc(N(C(=O)C(=O)N[C@H](C)c2ccccc2)[C@H]2CC[C@H](Nc3ccc(C#N)cn3)CC2)ccc1N1CCN(C)[C@@H](C)C1 [YJZ8105, N1-(3-acrylamido-4-((S)-3,4-dimethylpiperazin-1-yl)phenyl)-N1-((1r,4R)-4-((5-cyanopyridin-2-yl)amino)cyclohexyl)-N2-((R)-1-phenylethyl)oxalamide]",
15 to 50 nM,,,"C=CC(=O)Nc1cc(N(C(=O)C(=O)NCc2cccc(F)c2F)[C@H]2CC[C@H](Nc3ccc(C#N)cn3)CC2)ccc1N1CCN(C)[C@@H](C)C1 [YJZ8107, N1-(3-acrylamido-4-((S)-3,4-dimethylpiperazin-1-yl)phenyl)-N1-((1r,4S)-4-((5-cyanopyridin-2-yl)amino)cyclohexyl)-N2-(2,3-difluorobenzyl)oxalamide]",
